Assay results from PubChem BioAssay AID179 (DTP/NCI, 2004).
Activity calls are given as the source filed them.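 The calls were made as follows: active = compounds giving half or more protection of infected cells from virus-caused growth loss, again on retest; inactive = the rest.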 Where a SMILES comes first, the peptide text is derived from it.

Tested on: CEM cells HIV-1 protection, formazan growth assay
Assay: NCI AIDS Antiviral Assay
Conditions: for IC50: measured here: growth of uninfected CEM cells
Summary of the method: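 Protection of CEM cells against HIV-1 was scored from cell growth (soluble formazan) across five concentrations, with parallel uninfected cells. Lack of protection may reflect toxicity.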

SMILES | EC50 | IC50 | outcome
CCC(C)C(NC(=O)C1CCCN1C(=O)C(Cc1ccc(O)cc1)NC(=O)C(CC(N)=O)NC(=O)C(CCC(N)=O)NC(=O)C(CO)NC(=O)C(N)C(C)C)C(=O)NC(CC(C)C)C(=O)NC(CCC(N)=O)C(N)=O (centres undefined) (H-VSQNYPILQ-NH2; configuration not given here) | > 58.9 µM | > 58.9 µM | –
CC1(C)C2CCC1(C)C(OC(=O)/C=C/C(=O)OC1CC3CCC1(C)C3(C)C)C2 (centres undefined) | – | – | inactive
COc1ccc(C(c2c(O)c3ccccc3n(C)c2=O)c2c(O)c3ccccc3n(C)c2=O)cc1 | > 8.13 µM | > 8.13 µM | –
CCOC1(OCC)N=C(N)C2(C#N)C3(C(=O)N(C(C)C)N=C3C)C12C#N (centres undefined) | > 200 µM | 166 µM | –
Nc1c(N=Nc2ccc(/C=C/c3ccc(N=Nc4cc(S(=O)(=O)O)c5cccnc5c4N)cc3S(=O)(=O)O)c(S(=O)(=O)O)c2)cc(S(=O)(=O)O)c2cccnc12 | > 4.68 µM | > 4.68 µM | –
O=C1OC(=O)C([Se]c2ccccc2)=C1[Se]c1ccccc1 | – | – | inactive
CS(=O)(=O)OCC1OC2OC3(CCCCC3)OC2C1OCc1ccccc1 (centres undefined) | > 200 µM | 105 µM | –
Cc1cc(NCCCCCCCCNc2cc(C)nc3cc(N)ccc23)c2ccc(N)cc2n1 | > 8.13 µM | 4.68 µM | –
COC1(OC)CC2C(=O)CCCC21OC(C)=O (centres undefined) | > 1020 µM | 22.4 µM | –
O=S(Nc1ccccc1)c1ccc(-c2ccccc2)cc1 (centres undefined) | > 200 µM | > 200 µM | –
Clc1cccc(Cl)c1Nc1ccccc1Cc1nc2ccccc2[nH]1 | > 200 µM | 75.9 µM | –
CCOC(=O)c1nc2ccc(OC)cc2c2c1Cc1ccccc1-2 | > 22.4 µM | > 22.4 µM | –
O=C1c2ccccc2C(=O)C12CCc1ccccc12 | – | – | inactive
O=C1/C(=C/c2cccc3ccccc23)CCc2ccc([N+](=O)[O-])cc21 | > 200 µM | 47.9 µM | –
COc1nc(N=[N+]=[N-])nc(-c2c(OC)ccc3ccccc23)n1 | > 200 µM | 47.9 µM | –
O=c1/c(=C/c2ccccn2)sc2nc3cc4c(cc3n12)OCCO4 | > 200 µM | > 200 µM | –
O=C(CC(=O)c1ccccc1)C(=O)NC12CC3CC(CC(C3)C1)C2 | > 11.5 µM | > 11.5 µM | –
N#CC(C#N)=Cc1cccc(Oc2ccccc2)c1 | > 29.5 µM | > 29.5 µM | –
OCC1OC(Oc2cc(O)cc(CCc3ccc(O)c(O)c3)c2)C(O)C(O)C1O (centres undefined) | > 617 µM | 41.7 µM | –
Oc1ccc2c(c1)-c1c(c3ccccc3n1CCN1CCOCC1)CC2 | > 200 µM | 32.4 µM | –
C[N+](C)(C)CC1CCCC(C[N+](C)(C)C)C1O (centres undefined) | – | – | inactive

SMILES | EC50 | IC50 | outcome
Cc1ccc(/C(O)=C/c2nc3c(nc2NC24CC5CC(CC(C5)C2)C4)c(=O)oc2ccccc23)cc1 | > 2.19 µM | > 2.19 µM | –
Fc1cccc2c1[nH]c1c2ncc2[nH]c3ccccc3c21 | > 20 µM | 6.92 µM | –
O=C(Nc1cccc(NC(=O)c2cc(=O)c3ccccc3o2)n1)c1cc(=O)c2ccccc2o1 | > 151 µM | > 151 µM | –
N#C/C(=C\N1CC(=O)NC1=S)C(N)=O | > 200 µM | > 200 µM | –
COC(=O)CNCc1cc(N(C)C)cc(CNCC(=O)OC)n1 | > 200 µM | > 200 µM | –
COC(=O)n1c(C)c(C=O)c2ccc(OC)cc21 | > 200 µM | 34.7 µM | –
CCCCCCCCCCCCCCCCCCOCC(C[N+]1(C)CCC(O)CC1)OCC (centres undefined) | > 0.912 µM | > 0.912 µM | –
CC(C)=CCN1CC(C)C(=O)Nc2cc(Cl)ccc21 (centres undefined) | > 132 µM | 28.2 µM | –
CC(C)C(NC(=O)OC(C)(C)C)C(=O)N1CC[C@@H](O)[C@H]1C(O)CC(=O)OC(C)(C)C (some centres undefined) | > 200 µM | > 200 µM | –
C=CC(C)(C)n1cc(C2=C(O)C(=O)C(c3cn(C(C)(C)C=C)c4ccccc34)=C(OC(C)=O)C2=O)c2ccccc21 | > 20 µM | 1.07 µM | –
OC12c3ccccc3C3CCC4(OCCO4)C3C1c1ccccc12 (centres undefined) | > 200 µM | 141 µM | –
CN=c1c2c(c3[nH]c4ccccc4c4cnc1c34)NCCC2=O | > 200 µM | 1.41 µM | –
CN(C)C(=S)Sc1nsc(SC(=S)N(C)C)n1 | > 200 µM | > 200 µM | –
CN(C)C[C@H]1C2C=CC(C2)[C@@H]1CO (some centres undefined) | > 490 µM | > 490 µM | –
COC1C2c3ccccc3C(C#N)(Cc3ccc4c(c32)OCO4)N1C(=O)c1ccccc1 (centres undefined) | – | – | inactive
CCCCc1c2c(nc3c1CCC/C3=C\c1ccccc1)C(=O)CCC2 | > 5.75 µM | > 5.75 µM | –
N#CC(C#N)=Cc1cccc(C#N)c1 | > 141 µM | 2.45 µM | –
O=C(O)c1cc(O)c(O)c(O)c1 | > 200 µM | 11 µM | –
COc1cc(OC)c(/C=C/c2ccncn2)c(OC)c1 | > 182 µM | 93.3 µM | –
Cc1ccc2c(c1C)CC1(Cc3ccc(C)c(C)c3C1=O)C2=O (centres undefined) | > 100 µM | > 100 µM | –
N#Cc1c(C[n+]2ccccc2)c2ccccc2oc1=O | 617 µM | 646 µM | –

SMILES | EC50 | IC50 | outcome
CCC(C)C(N)C(=O)NC(C(=O)NC(CO)C(=O)NC(C)C(=O)NC(CO)C(=O)NC(C(=O)NC(CCCCN)C(=O)NC(CCCCN)C(=O)NC(CO)C(=O)NC(Cc1ccccc1)C(=O)O)C(C)CC)C(C)CC (centres undefined) (H-IISASIKKSF-OH; configuration not given here) | – | – | inactive
CC(C)Cc1cnc(CC(C)C)c(-c2cc3ccccc3[nH]2)n1 | > 8.91 µM | > 8.91 µM | –
CSc1nc2c(c(=O)[nH]1)N=C(c1ccc(Cl)cc1)CC(c1ccccc1)N2 (centres undefined) | > 200 µM | 33.1 µM | –
COC(=O)c1cc(C(=O)OC)c(CC(=O)C(=O)NC2C3CC4CC(C3)CC2C4)nc1CC(=O)C(=O)NC1C2CC3CC(C2)CC1C3 (centres undefined) | > 282 µM | > 282 µM | –
CN1C(=O)N/C(=C\c2ccc(S(=O)(=O)N/N=C\C(O)C(O)C(O)C(O)CO)cc2)C1=O (centres undefined) | > 200 µM | > 200 µM | –
C=C1C(=O)O[C@H]2C1C[C@@H](O)[C@@]1(C)OC1CC[C@@]1(C)O[C@H]21 (some centres undefined) | > 200 µM | 4.47 µM | –
CC(Cc1cccc2c1Nc1ccccc1S2)N(C)CCO (centres undefined) | > 200 µM | 33.9 µM | –
O=C(NNC(=O)/C(=C/c1cccc([N+](=O)[O-])c1)NC(=O)c1ccccc1)Nc1ccc(Cl)cc1 | > 38.9 µM | 24.5 µM | –
COc1cc2c(cc1OC)C(=O)N1CCCC1C(=O)S2 (centres undefined) | – | – | inactive
CNn1c(C)n[nH]c1=O | > 200 µM | > 200 µM | –
COC(=O)C(C)(C)C(=O)C(C)(C)P(C)(=O)OC (centres undefined) | > 200 µM | > 200 µM | –
O=C(c1ccc(Cl)cc1)C1OC12C(=O)Nc1c(Cl)cc(Cl)cc12 (centres undefined) | > 19.5 µM | > 19.5 µM | –
CCN(CC)CCOC(=O)c1cc2ccccc2n1Cc1ccccc1 | > 100 µM | > 100 µM | –
CCOC1(OCC)CC2C(=O)CCCC21OC(C)=O (centres undefined) | > 229 µM | 132 µM | –
[O-]/N=N\c1on[n+](CCc2ccccc2)c1Cc1c(/N=N/[O-])on[n+]1CCc1ccccc1 | – | – | inactive
CCOC(=O)Nc1ccc(C(=O)/C=C\c2ccc(N(CC)CC)cc2)cc1 | > 200 µM | 3.72 µM | –
CCCCOC(=S)SSC(=S)OCCCC | > 56.2 µM | 11.5 µM | –
Nc1c(N2CCOCC2)c(=O)nc2[nH]/c(=C\c3ccccc3O)c(=O)n12 | > 200 µM | 97.7 µM | –
COC(=O)C1CC(Sc2ccccc2)C(=O)C(C(=O)OC)C1 (centres undefined) | > 112 µM | 77.6 µM | –
Cn1c(=O)c2c(=O)cc(N)[nH]c2n(C)c1=O | – | – | inactive
Nc1cc(CO)cc(Nc2c3ccccc3nc3ccccc23)c1 | > 2 µM | 0.347 µM | –

SMILES | EC50 | IC50 | outcome
COC(=O)c1cc(Cl)ccc1NC(=O)c1ccc([N+](=O)[O-])cc1 | – | – | inactive
COc1ccc(OC)c2c1C=CC(Br)=CC2 | > 200 µM | 53.7 µM | –
N#CCCN(CCC#N)c1ccc(/C=C2\N=C(c3cc([N+](=O)[O-])ccc3Cl)N(NC(=O)CC(=O)Nc3ccccc3Cl)C2=O)cc1 | > 11 µM | > 11 µM | –
Cc1ccc(C2=C(c3ccccc3)C(O)(c3ccc(C)cc3)C(c3ccccc3)=C2c2ccc(C)cc2)cc1 | > 5.13 µM | > 5.13 µM | –
CC(C)c1ccccc1NC(=O)C(=O)Cc1nc2ccccc2s1 | – | – | inactive
N=C1N(c2ccccc2)C(=O)CC(=O)N1c1ccccc1 | > 200 µM | 53.7 µM | –
Cc1ccc(C(=O)NC2C(=O)NC(C(C)C)C(=O)N3CCCC3C(=O)N(C)CC(=O)N(C)C(C(C)C)C(=O)OC2C)c2c1Oc1c(c(C(=O)NC3C(=O)NC(C(C)C)C(=O)N4CCCC4C(=O)N(C)CC(=O)N(C)C(C(C)C)C(=O)OC3C)c3nc(-c4ccccc4)c(=O)oc3c1C)N2 (centres undefined) | > 19.1 µM | 0.00794 µM | –
CCCCCCCCCC1CC(=O)OC23CCCC(=O)C12O3 (centres undefined) | > 32.4 µM | > 32.4 µM | –
CCCCN(CC)C(=O)COc1cc2c(O)c3c(O)c(C)c4c(c13)C(=O)C(C)(O/C=C\C(OC)C(C)C(OC(C)=O)C(C)C(O)C(C)C(O)C(C)/C=C\C=C(\C)C(=O)N2)O4 (centres undefined) | – | – | inactive
CCN(CC)CCOC(=O)OCCCCOC(=O)OCCN(CC)CC | > 200 µM | > 200 µM | –
Cc1ccsc1/C=N/Nc1ccccn1 | > 200 µM | 21.4 µM | –
N#CN/C(N)=N/C/N=C(\N)NC#N | > 501 µM | > 501 µM | –
Cn1cc(NC(=O)c2cc(NC(=O)CCCCCC(=O)Nc3cc(C(=O)Nc4cc(C(=O)NCCC(=N)N)n(C)c4)n(C)c3)cn2C)cc1C(=O)NCCC(=N)N | 53.7 µM | 67.6 µM | –
Cc1[nH]c(N)c(C#N)c1Cc1ccccc1 | > 200 µM | > 200 µM | –
CCOC(=O)C/C(C)=N\NC(=O)c1ccncc1 | > 200 µM | > 200 µM | –
CCN(CC)CC1CCCCN1CC(=O)N1c2ccccc2NC(=O)CC1C (centres undefined) | 158 µM | > 200 µM | –
Cc1cc(NS(=O)(=O)c2ccc(NC(=O)c3ccc(Cl)c4c(Nc5ccc(S(N)(=O)=O)cc5)c5ccccc5nc34)cc2)no1 | > 38.9 µM | 26.3 µM | –
Cc1cccc2c1CCC21OC(=O)c2c1cc(F)c1ccccc21 (centres undefined) | > 39.8 µM | 14.8 µM | –
O=S1(=O)OCCOS(=O)(=O)C1I | > 759 µM | 132 µM | –
N#C/C(=C\c1ccccc1)c1ccccc1[N+](=O)[O-] | > 200 µM | 12.6 µM | –
